US6911432B2, “Drugs, foods or drinks with the use of algae-derived physiologically active substances” (priority 1997, dated 2005)

What was measured:
HL-60 cells [1] = assay: antiproliferation assay, MTT method, absorbance at 590 nm; format: cell-based, human; conditions: HL-60
RAW264.7 = assay: antiproliferation assay, MTT method; format: cell-based, mouse
Protocol: (§1) Each fraction was sterilized by filtration and its 10 μl portion was placed in a well of a 96 well microtiter plate. […] The cell morphology was observed under an optical microscope. […] The absorbance at 590 nm was measured to determine a cell proliferation rate. (2) A 50 mM solution of agarobiose, agarotetraose or agarohexaose obtained in Example 3-(1) was sterilized by filtration and diluted 2-, 4-, 8-, 16-, 32-, 64- and 128-folds with sterilized water. […] [table] The number in Table 3 represents the dilution rate of the dilution added to the group whose absorbance at 590 nm was less than one-half of that of the control group to which water was added. […] Then, for agarobiose, agarotetraose and agarohexaose, the concentrations required for 50% proliferation inhibitory rate (IC50) are calculated based on the change in the absorbance at 590 nm, and are shown in Table 4.

A549 = assay: antiproliferation assay, MTT method; format: cell-based, human
Protocol: as §1

HCT116 = assay: antiproliferation assay, MTT method; format: cell-based, human
Protocol: as §1

HT-29 = assay: antiproliferation assay, MTT method; format: cell-based, human
Protocol: as §1

HeLa S3 = assay: antiproliferation assay, MTT method; format: cell-based, human
Protocol: as §1

HepG2 = assay: antiproliferation assay, MTT method; format: cell-based, human
Protocol: as §1

MCF7 = assay: antiproliferation assay, MTT method; format: cell-based, human
Protocol: as §1

MKN45 = assay: antiproliferation assay, MTT method; format: cell-based, human
Protocol: as §1

RPMI1788 = assay: antiproliferation assay, MTT method; format: cell-based, human
Protocol: as §1

T-47D = assay: antiproliferation assay, MTT method; format: cell-based, human
Protocol: as §1

T24 = assay: antiproliferation assay, MTT method; format: cell-based, human
Protocol: as §1

WiDr = assay: antiproliferation assay, MTT method; format: cell-based, human
Protocol: as §1

A-172 = assay: antiproliferation assay, MTT method; format: cell-based
Protocol: as §1

HT-1080 = assay: antiproliferation assay, MTT method; format: cell-based
Protocol: as §1

HL-60 cells [2] = assay: viable cell count with Trypan Blue under a microscope; format: cell-based, human; conditions: final concentration 250 μM or 125 μM
Protocol: Agarobiose, agarotetraose, agarohexaose and agarooctaose (hereinafter, sometimes, these oligosuccharaides are referred to as agarooligosaccharides) obtained in Example 5 were dissolved in water at a concentration of 2.5 mM or 1.25 mM separately, and were sterilized by filtration. HL-60 cells were suspended in RPMI 1640 medium containing 10% fetal bovine serum at a concentration of 2.5×10^5 cells/4.5 ml and to this suspension was added 0.5 ml of each of the oligosaccharide solutions. The resultant mixture were incubated with 5% CO2 at 37° C. for 24 hours or 48 hours. A part of the cell culture was taken up, followed by addition of Trypan Blue thereto and observing under a microscope to count the number of viable cells.
That is, FIG. 14 illustrates the relation between the incubation time and the number of viable cells when HL-60 cells were cultured with addition of one of the oligosaccharides at the final concentration of 250 μM. FIG. 15 illustrates the relation between the incubation time and the number of viable cells when HL-60 cells were cultured with addition of one of the oligosaccharides at the final concentration of 125 μM. In FIGS. 14 and 15, the horizontal axes represent the incubation time (hrs.) and the vertical axes represent the number of viable cells (× 10^5/5 ml). The closed circle (●) represents the addition of water (control), the open diamond (⋄) represents the addition of agarobiose, the open circle (◯) represents the addition of agarotetraose, the open triangle (Δ) represents the addition of agarohexaose and the open square (□) represents the addition of agarooctaose.

iNOS = iNOS expression by western blotting and RT-PCR; format: cell-based; conditions: protein level by western blotting, messenger RNA level by RT-PCR
Protocol: The confirmation was carried out at protein level by western blotting and at messenger RNA level by RT-PCR. That is, the compounds used in the present invention are useful for treating and preventing diseases that require inhibition of NO production by inhibiting expression of iNOS which is overexpressed by various factors to produce excess NO.

[3] = read-out: IC50 (concentration required for 50% proliferation inhibitory rate)
[4] = dilution rate 1 corresponds to 5 mM in medium

IC50 (HL-60 cells [1]; [3]): 78 µM | IC50 (A549; [3]): 279 µM | IC50 (HCT116; [3]): 136 µM | IC50 (HT-29; [3]): 144 µM | IC50 (HeLa S3; [3]): 334 µM | IC50 (HepG2; [3]): 430 µM | IC50 (MCF7; [3]): 238 µM | IC50 (MKN45; [3]): 166 µM | IC50 (T-47D; [3]): 158 µM | IC50 (T24; [3]): 365 µM | IC50 (HT-1080; [3]): 185 µM
SMILES: OC[C@H]1O[C@@H](O[C@H]2[C@H]3OC[C@@H]2O[C@@H](O[C@H]2[C@@H](O)[C@@H](CO)O[C@@H](O[C@H]4[C@H]5OC[C@@H]4O[C@@H](O[C@H]4[C@@H](O)[C@@H](CO)O[C@@H](O[C@H]6[C@H]7OC[C@@H]6OC(O)[C@H]7O)[C@@H]4O)[C@H]5O)[C@@H]2O)[C@H]3O)[C@H](O)[C@@H](O)[C@H]1O (mixture of isomers) [Agarohexaose, agarohexaose]
dilution rate of the dilution added to the group whose absorbance at 590 nm was less than one-half of that of the control group (HL-60 cells [1]; 50 mM solution diluted 2- to 128-fold, dilution rate 1 corresponds to 5 mM in the cell culture medium): 64 | dilution rate of the dilution added to the group whose absorbance at 590 nm was less than one-half of that of the control group (RAW264.7; [4]): 32 | IC50 (RAW264.7; [3]): 109 µM | dilution rate of the dilution added to the group whose absorbance at 590 nm was less than one-half of that of the control group (A549; [4]): 16 | dilution rate of the dilution added to the group whose absorbance at 590 nm was less than one-half of that of the control group (HCT116; [4]): 32 | dilution rate of the dilution added to the group whose absorbance at 590 nm was less than one-half of that of the control group (HT-29; [4]): 32 | dilution rate of the dilution added to the group whose absorbance at 590 nm was less than one-half of that of the control group (HeLa S3; [4]): 16 | dilution rate of the dilution added to the group whose absorbance at 590 nm was less than one-half of that of the control group (HepG2; [4]): 16 | dilution rate of the dilution added to the group whose absorbance at 590 nm was less than one-half of that of the control group (MCF7; [4]): 16 | dilution rate of the dilution added to the group whose absorbance at 590 nm was less than one-half of that of the control group (MKN45; [4]): 16 | dilution rate of the dilution added to the group whose absorbance at 590 nm was less than one-half of that of the control group (RPMI1788; [4]): 128 | IC50 (RPMI1788; [3]): 22 µM | dilution rate of the dilution added to the group whose absorbance at 590 nm was less than one-half of that of the control group (T-47D; [4]): 16 | dilution rate of the dilution added to the group whose absorbance at 590 nm was less than one-half of that of the control group (T24; [4]): 8 | dilution rate of the dilution added to the group whose absorbance at 590 nm was less than one-half of that of the control group (WiDr; [4]): 16 | IC50 (WiDr; [3]): 334 µM | dilution rate of the dilution added to the group whose absorbance at 590 nm was less than one-half of that of the control group (A-172; [4]): 16 | IC50 (A-172; [3]): 151 µM | dilution rate of the dilution added to the group whose absorbance at 590 nm was less than one-half of that of the control group (HT-1080; [4]): 16 | apoptosis corpuscles (HL-60 cells [2]): apoptosis corpuscles were observed | number of viable cells as compared with the group to which water was added (HL-60 cells [2]; 24 hours or 48 hours): decreased | inhibition of iNOS expression (iNOS): inhibit this iNOS expression
